Measurements reported in article PMC7321301, “Characteristics of New Peptides GQLGEHGGAGMG, GEHGGAGMGGGQFQPV, EQGFLPGPEESGR, RLARAGLAQ, YGNPVGGVGH, and GNPVGGVGHGTTGT as Inhibitors of Enzymes Involved in Metabolic Syndrome and Antimicrobial Potential” (Molecules, 2020).
No end group written: not given here.

Key:
HECa10 cells = assay: LDH test; assay type: cell-based, murine; settings: 24-h incubation, 0.1–100 µg/mL
Protocol: The study was conducted according to the procedure described by Rokicki et al.. HECa10 cells after 80–90% confluence were trypsinized (3 min, 37 °C), centrifuged (300 g, 5 min), counted, and plated in 96-well plates at a concentration of 1 × 10^4 cells/well. Then, 24 h after seeding, cells were washed with phosphate-buffered saline (PBS) solution and culture medium (Dulbecco’s Modified Eagle Medium (DMEM) + 10% fetal bovine serum (FBS) + antibiotics, all from Life Technologies, Warsaw, Poland) was added with test factors in concentrations: 0.1; 1; 5; 10; 50; 100 µg/mL). Then, 24 h after addition of the compounds, proliferation tests (MTT, NR, LDH) were performed. The color intensity was determined using a Fluostar Omega microplate reader. Results are presented as the mean ± SD of 3 independent experiments (n = 12).
The cells were seeded in a 96-well culture plate at a concentration of 1 × 10^4 cells/well. Then, 24 h after seeding, the cells were rinsed twice with PBS (Life Technologies, Poland) and resuspended in fresh growth medium. Peptide fractions were added at concentrations of 0 (control), 0.1, 1, 5, 10, 50, and 100 µg/mL. After 24 h incubation with the proteins, activity of released from cells lactate dehydrogenase was assessed (Pierce Ldh Cytotoxicity Assay Kit, Life Technologies, Warsaw Poland).The absorption was measured at a wavelength of 540 nm with the background cutoff at 490 nm (FLUOstar Omega, BMG Labtech GmbH, Ortenberg, Germany). The results are presented as the percentage of the control values (mean ± SD). Each assay was performed in triplicate (n = 18).

[1] = biological target: T1, α-amylase from hog pancreas (Sus scrofa, UniProt P00690); assay: α-amylase inhibitory activity (starch, DNS) and kinetics; assay type: biochemical
T1 construct: α-amylase from hog pancreas (50 U/mg); from tissue; host or cells: hog pancreas
T1 sequence (P00690 16-511): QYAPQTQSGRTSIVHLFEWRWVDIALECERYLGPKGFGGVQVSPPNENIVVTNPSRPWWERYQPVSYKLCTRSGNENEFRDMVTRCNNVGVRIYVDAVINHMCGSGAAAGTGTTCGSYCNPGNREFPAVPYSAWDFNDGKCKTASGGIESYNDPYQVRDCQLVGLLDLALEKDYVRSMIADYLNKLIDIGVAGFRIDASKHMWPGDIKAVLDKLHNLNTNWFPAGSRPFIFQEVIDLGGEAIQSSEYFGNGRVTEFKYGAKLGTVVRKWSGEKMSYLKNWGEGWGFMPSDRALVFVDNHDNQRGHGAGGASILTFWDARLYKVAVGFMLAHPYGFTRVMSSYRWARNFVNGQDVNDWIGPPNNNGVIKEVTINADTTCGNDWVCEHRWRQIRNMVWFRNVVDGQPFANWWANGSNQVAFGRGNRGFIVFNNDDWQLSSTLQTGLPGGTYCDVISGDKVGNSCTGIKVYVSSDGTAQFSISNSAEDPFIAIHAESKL
Protocol: For all inhibitory activity, IC50 was calculated. […] The IC50 value was calculated from the plotted graph of the inhibition activity for the five different peptide concentrations. […] To measure the α-amylase inhibitory activity, a mixture of 25 μL of α-amylase solution and 25 μL of sample was first incubated at 40 °C for 5 min. Then, 50 μL of 1% (w/v) soluble starch (dissolved in 100 mM phosphate buffer containing 6 mM NaCl, pH 7) was added. After 10 min, the reaction was stopped by adding 100 μL of 3,5-dinitrosalicylic acid (DNS) and heating for 10 min. Then, the mixture was made up to 300 μL with double distilled water. After that, the absorbance at 540 nm was measured using BioTek Microplate Readers (EpochTM 2 BioTek, Bad Friedrichshall, Germany). The final results were compared with the activity of the same amount of enzyme without the inhibitor. All assays were carried out in triplicate. For IC50 value determination, the inhibitory activity for […] of samples was investigated. […] The kinetic parameters were evaluated by Lineweaver-Burk's method. The reaction conditions were the same as in the enzyme inhibitory activity assay.

Row | Sequence | LDH activity test, HECa10 cells compared to control (HECa10 cells) | IC50 [1] [µM]
1 | EQGFLPGPEESGR [ER-13, EQGFLPGPEESGR] | no statistically significant differences | 51.1
2 | RLARAGLAQ [RQ-9, RLARAGLAQ] | no statistically significant differences | 69.9
3 | GEHGGAGMGGGQFQPV [GV-16, GEHGGAGMGGGQFQPV] | no statistically significant differences | 44.6
4 | GNPVGGVGHGTTGT [GT-14, GNPVGGVGHGTTGT] | no statistically significant differences | 50
5 | YGNPVGGVGH [YH-10, YGNPVGGVGH] | no statistically significant differences | 80.3
6 | GQLGEHGGAGMG [GG-12, GQLGEHGGAGMG] | no statistically significant differences | 53
